Where a SMILES comes first, the peptide text is derived from it. Bridges are numbered along the chain shown (N, C = ends). [ ]: non-standard residue; d: D form. Trp(6-Cl) = N[C@@H](Cc1c[nH]c2cc(Cl)ccc12)C(=O)O; R8 = C=CCCCCCC[C@@](C)(N)C(=O)O; S5 = C=CCCC[C@](C)(N)C(=O)O; Ac3c = NC1(C(=O)O)CC1
Assays:
[1] = tested on: Caspase 3 activation in SJSA1 cells; experiment: Caspase 3 detection assay; assay type: cell-based; details: 48 h, Caspase 3 activation over DMSO-treated cells
Description: Read on Synergy Biotek multiplate reader for luminescence. Data is analyzed as Caspase 3 activation over DMSO-treated cells.

SJSA-1 cells = experiment: Cell lysis by peptidomimetic macrocycles (LDH release); assay type: cell-based; details: 1 h incubation
Description: On the day of the assay, media was exchanged with RPMI 1% FBS media, 90 μl of media per well.
10 mM stock solutions of the peptidomimetic macrocycles were prepared in 100% DMSO.
The negative control (non-lytic) sample was 0.5% DMSO alone and positive control (lytic) samples include 10 uM Melittin and 1% Triton X-100.
Cell plates were incubated for 1 hour at 37° C. After the 1 hour incubation, the morphology of the cells is examined by microscope and then the plates were centrifuged at 1200 rpm for 5 minutes at room temperature. 40 μl of supernatant for each peptidomimetic macrocyle and control sample is transferred to clear assay plates.

MDMX = target: T1, MDMX (Homo sapiens, UniProt O15151); experiment: Competitive fluorescence polarization assay MDMX; assay type: binding; details: Table 26B; competitive FP
T1 sequence (O15151 1-125): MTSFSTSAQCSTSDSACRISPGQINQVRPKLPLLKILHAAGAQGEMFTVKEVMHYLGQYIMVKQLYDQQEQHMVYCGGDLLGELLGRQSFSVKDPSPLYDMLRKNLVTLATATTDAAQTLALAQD
Description: Dilute MDMX (In-house, 40 kD) into FP buffer (High salt buffer—200 mM NaCl, 5 mM CHAPS, pH 7.5.) to make 300 nM (2×) working stock solution. • 2. Add 20 μl of 300 nM (2×) of protein stock solution into each well of 96-well black HE microplate (Molecular Devices) • 3. Dilute 1 mM (in 100% DMSO) of FAM labeled linear peptide with DMSO to 100 μM (dilution 1:10). Then, dilute from 100 μM to 10 μM with water (dilution 1:10) and then dilute with FP buffer from 10 μM to 40 nM (dilution 1:250). This is the working solution which will be a 10 nM concentration in well (dilution 1:4). Keep the diluted FAM labeled peptide in the dark until use. • 4. […] Dilute 10 mM (in 100% DMSO) with DMSO to 5 mM (dilution 1:2). Then, dilute from 5 mM to 500 μM with H2O (dilution 1:10) and then dilute with FP buffer from 500 μM to 20 μM (dilution 1:25). […] Transfer 10 μl of serial diluted unlabeled peptides to each well which is filled with 20 μl of 300 nM of protein. • 7. Add 10 μl of 10 nM (4×) of FAM labeled peptide into each well and incubate for 3 hr to read.

MDM2 = MDM2 (Homo sapiens, UniProt Q00987); experiment: Competitive fluorescence polarization assay for MDM2; assay type: binding; details: Table 26B; competitive FP; read-out: Ki (MDM2)
Chain of MDM2 (Q00987 1-125): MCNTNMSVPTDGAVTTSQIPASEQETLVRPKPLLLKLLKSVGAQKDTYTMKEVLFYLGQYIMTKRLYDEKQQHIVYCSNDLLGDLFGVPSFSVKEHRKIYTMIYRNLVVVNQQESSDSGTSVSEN
Description: Dilute 1 mM (in 100% DMSO) of FAM labeled linear peptide with DMSO to 100 μM (dilution 1:10). Then, dilute from 100 μM to 10 μM with water (dilution 1:10) and then dilute with FP buffer from 10 μM to 40 nM (dilution 1:250). This is the working solution which will be a 10 nM concentration in well (dilution 1:4). Keep the diluted FAM labeled peptide in the dark until use. • 4. […] Dilute 10 mM (in 100% DMSO) with DMSO to 5 mM (dilution 1:2). Then, dilute from 5 mM to 500 μM with H2O (dilution 1:10) and then dilute with FP buffer from 500 μM to 20 μM (dilution 1:25). […] Add 10 μl of 10 nM (4×) of FAM labeled peptide into each well and incubate for 3 hr to read.

GST-hDM2 = GST-hDM2 (Homo sapiens, UniProt Q00987); experiment: Competition ELISA IC50 (nM) | GST-hDM2
Chain of GST-hDM2 (Q00987 whole entry, looked up): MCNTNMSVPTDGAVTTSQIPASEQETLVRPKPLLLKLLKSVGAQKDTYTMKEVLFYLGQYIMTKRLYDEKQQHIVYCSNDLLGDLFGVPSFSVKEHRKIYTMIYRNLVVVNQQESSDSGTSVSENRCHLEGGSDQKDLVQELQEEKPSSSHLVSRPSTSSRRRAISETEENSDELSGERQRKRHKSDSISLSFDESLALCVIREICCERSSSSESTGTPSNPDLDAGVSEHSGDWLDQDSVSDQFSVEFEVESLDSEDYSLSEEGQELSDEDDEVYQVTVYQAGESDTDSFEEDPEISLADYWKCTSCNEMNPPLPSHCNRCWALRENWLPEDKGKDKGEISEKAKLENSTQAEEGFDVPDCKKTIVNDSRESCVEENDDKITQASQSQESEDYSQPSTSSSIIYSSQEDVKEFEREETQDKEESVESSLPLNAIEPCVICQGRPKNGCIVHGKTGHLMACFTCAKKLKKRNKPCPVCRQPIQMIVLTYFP
Description: Table printed on a drawing sheet, FIGURE 5A
Head of the field: Competition ELISA IC50 (nM) | GST-hDM2
The patent's description of the figure: FIGS. 5A-F describe the results of a cell viability assay, a competition ELISA assay, GRIP assay, Kd data, p21 activation assay, fluorescence polarization competition binding and circular helicity data for exemplary peptidomimetic macrocycles of the invention.
First copying reader's note: First part of a table that continues on FIGS. 5B-F; the print is coarse, several cells hold replicate values separated by; or , and some values sit slightly off their row line.
Where the first naming reader finds the target: head: Competition ELISA IC50 (nM) | GST-hDM2

HDM2 = HDM2 (Homo sapiens, UniProt Q00987); experiment: FP Competition Blinding Assay | HDM2 IC50 (nM)
Chain of HDM2 (Q00987 whole entry, looked up): as above

HDMx = HDMx (Homo sapiens, UniProt O15151); experiment: FP Competition Blinding Assay | HDMx IC50 (nM)
Chain of HDMx (O15151 whole entry, looked up): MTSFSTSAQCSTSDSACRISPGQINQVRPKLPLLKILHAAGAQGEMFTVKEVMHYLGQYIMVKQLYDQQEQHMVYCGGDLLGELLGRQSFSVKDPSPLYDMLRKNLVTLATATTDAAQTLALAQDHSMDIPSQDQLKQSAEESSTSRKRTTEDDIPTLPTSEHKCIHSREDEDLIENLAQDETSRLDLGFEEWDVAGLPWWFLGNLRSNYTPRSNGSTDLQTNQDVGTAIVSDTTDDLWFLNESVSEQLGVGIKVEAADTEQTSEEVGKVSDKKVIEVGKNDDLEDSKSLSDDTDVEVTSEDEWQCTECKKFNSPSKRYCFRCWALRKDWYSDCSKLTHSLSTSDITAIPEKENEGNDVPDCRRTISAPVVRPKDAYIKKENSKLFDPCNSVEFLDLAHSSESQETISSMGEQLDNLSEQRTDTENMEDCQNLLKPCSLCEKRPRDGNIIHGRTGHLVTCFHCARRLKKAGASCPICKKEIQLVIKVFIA

287 (LTFAEYWAQAAAAIA; not fully specified; Ac, NH2, staple, difluoro-Phe, Cba; N-term Ac; MOD_RES (3)..(3): 3,4-difluoro-Phe; MOD_RES (4)..(4): Alpha-Me R-azide 1,4 triazole (6 carbon) alanine olefin amino acid connected by an all-carbon crosslinker comprising one double bond; misc_feature (4)..(11): C) [compound 287]
caspase 0.3 uM ([1]; 0.3 uM): 1 | caspase 1 uM ([1]; 1 uM): 1 | caspase 3 uM ([1]; 3 uM): 3 | caspase 10 uM ([1]; 10 uM): 11 | caspase 30 uM ([1]; 30 uM): 23 | 6.25 uM % Lysed cells (1 h LDH) (SJSA-1 cells; 6.25 uM): 0% | 25 uM % Lysed cells (1 h LDH) (SJSA-1 cells; 25 uM): 11% | 50 uM % Lysed cells (1 h LDH) (SJSA-1 cells; 50 uM): 56%

CC(=O)N[C@@H](CC(C)C)C(=O)N[C@H](C(=O)N[C@@H](Cc1ccccc1)C(=O)N[C@]1(C)CCCCCCn2nnc(c2-c2ccccc2)CCC[C@@](C)(C(=O)N[C@@H](CO)C(=O)N[C@@H](C)C(=O)N[C@@H](C)C(N)=O)NC(=O)[C@H](CC2CCC2)NC(=O)[C@H](CCC(N)=O)NC(=O)[C@H](C)NC(=O)[C@H](Cc2c[nH]c3ccccc23)NC(=O)[C@H](Cc2ccc(O)cc2)NC(=O)[C@H](CCC(=O)O)NC1=O)[C@@H](C)O [SP465, Ac-LTF$4rn6EYWAQCba5Ph-$4a5SAA-NH2]
Ki (MDMX): < 10 nM | Ki (MDM2): < 10 nM

CC(=O)N[C@@H](CC(C)C)C(=O)N[C@@H](CO)C(=O)N[C@@H](CCC(N)=O)C(=O)N[C@@H](CCC(N)=O)C(=O)N[C@H](C(=O)N[C@@H](Cc1ccccc1)C(=O)N[C@]1(C)CCCCCCC=CCCC[C@@](C)(C(=O)N[C@@H](CCC(N)=O)C(=O)N[C@@H](CC(N)=O)C(N)=O)NC(=O)[C@H](CC(C)C)NC(=O)[C@H](CC(C)C)NC(=O)[C@H](CCCNC(=N)N)NC(=O)[C@H](Cc2c[nH]c3ccccc23)NC(=O)[C@H](CC(C)C)NC(=O)[C@H](CC(N)=O)NC1=O)[C@@H](C)O [SP-3, Ac-LSQQTF$r8NLWRLL$QN-NH2] (Ac-LSQQTF[R8]NLWRLL[S5]QN-NH2; staple 7-14 (inferred))
IC50 (GST-hDM2): 13.4 nM

CC(=O)N[C@@H](Cc1ccccc1)C(=O)N[C@]1(C)CCCCCCC=CCCC[C@@](C)(C(=O)N[C@@H](C)C(N)=O)NC(=O)[C@H](CC(C)C)NC(=O)C2(CC2)NC(=O)[C@H](CCC(=O)O)NC(=O)[C@H](Cc2c[nH]c3cc(Cl)ccc23)NC(=O)[C@H](Cc2ccc(O)cc2)NC(=O)[C@H](C)NC1=O [SP-128, Ac- F $r8 A Y 6clW E Ac3c L $ A -NH2] (Ac-F[R8]AY[Trp(6-Cl)]E[Ac3c]L[S5]A-NH2; staple 2-9 (inferred))
IC50 (HDM2): 114 nM

CC(=O)N[C@@H](CC(C)C)C(=O)N[C@H](C(=O)N[C@@H](Cc1ccccc1)C(=O)N[C@]1(C)CCCCCC/C=C/CCC[C@@](C)(C(=O)N[C@@H](CO)C(N)=O)NC(=O)[C@H](CC(C)C)NC(=O)[C@H](CCC(N)=O)NC(=O)[C@H](C)NC(=O)[C@H](Cc2c[nH]c3ccccc23)NC(=O)[C@H](Cc2ccc(O)cc2)NC(=O)[C@H](C)NC1=O)[C@@H](C)O [SP-190, Ac- L T F $er8 A Y W A Q L $e S -NH2] (Ac-LTF[R8]AYWAQL[S5]S-NH2; staple (E) 4-11 (inferred))
IC50 (HDM2): 74.9 nM | IC50 (HDMx): 97 nM

CC(=O)N[C@@H](Cc1c[nH]c2ccccc12)C(=O)N[C@H](C(=O)N[C@@H](Cc1ccccc1)C(=O)N[C@]1(C)CCCCCCC=CCCC[C@@](C)(C(=O)N[C@@H](CO)C(N)=O)NC(=O)[C@H](CC(C)C)NC(=O)[C@H](CCC(N)=O)NC(=O)[C@H](C)NC(=O)[C@H](Cc2c[nH]c3ccccc23)NC(=O)[C@H](Cc2ccc(O)cc2)NC(=O)[C@H](Cc2c[nH]cn2)NC1=O)[C@@H](C)O [SP-256, Ac- W T F $r8 H Y W A Q L $ S -NH2] (Ac-WTF[R8]HYWAQL[S5]S-NH2; staple 4-11 (inferred))
IC50 (HDMx): 204 nM

CC(=O)N[C@@H](CC(C)C)C(=O)N[C@H](C(=O)N[C@@H](Cc1ccccc1)C(=O)N[C@]1(C)CCCCCCC=CCCC[C@@](C)(C(=O)N[C@@H](CO)C(N)=O)NC(=O)[C@H](CC(C)C)NC(=O)[C@H](CCC(N)=O)NC(=O)[C@H](C)NC(=O)[C@H](Cc2c[nH]c3ccccc23)NC(=O)[C@H](Cc2ccc(O)cc2)NC(=O)[C@H](C(C)C)NC1=O)[C@@H](C)O [SP-266, Ac- L T F $r8 V Y W A Q L $ S -NH2] (Ac-LTF[R8]VYWAQL[S5]S-NH2; staple 4-11 (inferred))
IC50 (HDMx): 301 nM

CC(=O)N[C@@H](CC(C)C)C(=O)N[C@H](C(=O)N[C@@H](Cc1ccccc1)C(=O)N[C@]1(C)CCCCCCC=CCCC[C@@](C)(C(=O)N[C@@H](CO)C(N)=O)NC(=O)[C@H](CC(C)C)NC(=O)[C@H](CCC(N)=O)NC(=O)[C@H](C)NC(=O)[C@H](Cc2c[nH]c3ccccc23)NC(=O)[C@H](Cc2ccc(O)cc2)NC(=O)[C@H](Cc2ccccc2)NC1=O)[C@@H](C)O [SP-267, Ac- L T F $r8 F Y W A Q L $ S -NH2] (Ac-LTF[R8]FYWAQL[S5]S-NH2; staple 4-11 (inferred))
IC50 (HDM2): 191 nM

CC(=O)N[C@@H](CC(C)C)C(=O)N[C@H](C(=O)N[C@@H](Cc1ccccc1)C(=O)N[C@]1(C)CCCCCCC=CCCC[C@@](C)(C(=O)N[C@@H](CO)C(N)=O)NC(=O)[C@H](CC(C)C)NC(=O)[C@H](C)NC(=O)[C@H](C)NC(=O)[C@H](Cc2c[nH]c3ccccc23)NC(=O)[C@H](Cc2ccc(O)cc2)NC(=O)[C@H](C)NC1=O)[C@@H](C)O [SP-351, Ac- L T F $r8 A Y W A A L $ S -NH2] (Ac-LTF[R8]AYWAAL[S5]S-NH2; staple 4-11 (inferred))
IC50 (HDM2): 47.2 nM | IC50 (HDMx): 143 nM
